Experimental findings from patent US8541406B2, “Thiadiazole derivatives for the treatment of neurodegenerative diseases” (NV reMYND, priority 2006, dated 2013) are described below.

“Also recorded” adds a separate entry of the source.

The first assay has as its system M17-SYNwt cells. The experiment in a line: α-synuclein cytotoxicity assay (LDH leakage from paraquat-treated cells). The class given is cell-based, human. As to conditions: Homo sapiens; Table 3, tested according to the procedure of example 12. As for the experimental part: 1,2,4-thiadazole compounds made according to the methods described herein were screened for activity using the α-synuclein cytotoxicity assay as described above. Dose responses were carried out on all compounds found to be active (10 point curves in duplicate).
By EC50 is commonly meant the concentration that produces a half-maximal response. Read a high EC50 as weaker potency. Consider `O=S(=O)(c1cccs1)N1CCN(c2nc(Cc3ccc(F)cc3)ns2)CC1` [Example 50, 1-[thiophen-2-ylsulfonyl]-4-[3-(4-fluoro-benzyl)-1,2,4-thiadiazol-5-yl]piperazine], for which the EC50 was determined as 0.468 µM.

The same assay, now with this note: Homo sapiens; inhibition of synuclein cytotoxicity, paraquat-treated M17-SYNwt cells, 10 point curves in duplicate.
In the case of `CC1CN(c2nc(Cc3ccc(F)cc3)ns2)CCN1C(=O)CCc1ccccc1` (stereo not shown) [Compound 89, 1-(3-phenylpropanoyl)-4-[3-(4-fluorobenzyl)-1,2,4-thiadiazol-5-yl]-2-methylpiperazine], the EC50 was determined as 0.6 µg/mL.
`CCCCCCc1ccc(C(=O)NCCN2CCN(c3nc(Cc4ccc(F)cc4)ns3)CC2)cc1` [Compound 96, 4-hexyl-N-{2-[4-[3-(4-fluorobenzyl)-1,2,4-thiadiazol-5-yl]piperazin-1-yl]ethyl}benzamide] yielded an EC50 of 0.8 µg/mL.
For the compound `CCCCCc1ccc(C(=O)N2CCN(c3nc(Cc4ccc(C)cc4)ns3)CC2C)cc1` (stereo not shown) [Compound 134, 1-(4-pentylbenzoyl)-4-[3-(4-methylbenzyl)-1,2,4-thiadiazol-5-yl]-2-methylpiperazine], the EC50 amounted to 0.3 µg/mL.
Take `Cc1ccccc1NC(=O)N1CCN(c2nc(Cc3ccc(F)cc3)ns2)CC1C` (stereo not shown) [Compound 10, N-(2-methylphenyl)-4-[3-(4-fluorobenzyl)-1,2,4-thiadiazol-5-yl]-2-methylpiperazine-1-carboxamide]: the EC50 was found to be 0.6 µg/mL.
Compound `O=S(=O)(c1ccc2ccccc2c1)N1CCN(c2nc(Cc3ccc(Cl)cc3)ns2)CC1` [Compound 52, 1-[2-naphthylsulfonyl]-4-[3-(4-chlorobenzyl)-1,2,4-thiadiazol-5-yl]piperazine] showed an EC50 of 0.1 µg/mL.
The compound `CC1CN(c2nc(Cc3ccc(F)cc3)ns2)CCN1S(=O)(=O)c1cccc(C(F)(F)F)c1` (stereo not shown) [Compound 46, 1-[3-trifluorophenylsulfonyl]-4-[3-(4-fluorobenzyl)-1,2,4-thiadiazol-5-yl]-2-methylpiperazine] gave an EC50 of 1.34 µg/mL.
In turn, `COc1ccc(S(=O)(=O)N2CCN(c3nc(Cc4ccc(F)c(C)c4)ns3)CC2)cc1` [Compound 204] showed an EC50 of 0.001 µg/mL.
Regarding `O=S(=O)(c1ccc(O)cc1)N1CCN(c2nc(Cc3ccc(F)cc3)ns2)CC1` [Compound 217, 1-(4-hydroxybenzenesulfonyl)-4-[3-(4-fluoro-benzyl)-1,2,4-thiadiazol-5-yl]piperazine], the EC50 came to 0.033 µg/mL.
Compound `CC1CN(c2nc(Cc3ccc(F)cc3)ns2)CCN1C(=O)c1cccc(Br)c1` (stereo not shown) [Compound 142, 1-(3-bromobenzoyl)-4-[3-(4-fluorobenzyl)-1,2,4-thiadiazol-5-yl]-2-methylpiperazine] displayed an EC50 of 0.5 µg/mL.
Compound `Cc1ccc(Cc2nsc(N3CCN(S(=O)(=O)c4cc(Cl)ccc4Cl)C(C)C3)n2)cc1` (stereo not shown) [Compound 36, 1-[2,5-dichlorophenylsulfonyl]-4-[3-(4-methylbenzyl)-1,2,4-thiadiazol-5-yl]-2-methylpiperazine] showed an EC50 of 0.1 µg/mL.
`Cc1cccc(C)c1NC(=O)N1CCN(c2nc(Cc3ccc(F)cc3)ns2)CC1C` (stereo not shown) [Compound 19, N-(2,6-dimethylphenyl)-4-[3-(4-fluorobenzyl)-1,2,4-thiadiazol-5-yl]-2-methylpiperazine-1-carboxamide] yielded an EC50 of 0.2 µg/mL.
Still for that read-out and setting: next, `Cc1ccc(C(=O)N2CCN(c3nc(Cc4ccc(F)cc4)ns3)CC2C)cc1` (stereo not shown) [Compound 139, 1-(4-methylbenzoyl)-4-[3-(4-fluorobenzyl)-1,2,4-thiadiazol-5-yl]-2-methylpiperazine]: 0.4 µg/mL.

The assay is the same for the next values; noted with them: Table 3, tested according to the procedure of example 12.
On to `O=S(=O)(c1cccs1)N1CCN(c2nc(Cc3ccc(F)cc3)ns2)CC1` [Example 50, 1-[thiophen-2-ylsulfonyl]-4-[3-(4-fluoro-benzyl)-1,2,4-thiadiazol-5-yl]piperazine], for which the “% inh.” value worked out at 89%.
Turning to `COc1ccc(S(=O)(=O)N2CCN(c3nc(Cc4cccc(OC)c4)ns3)CC2C)cc1` (stereo not shown) [Compound 208, 1-[4-methoxyphenylsulfonyl]-4-[3-(3-methoxybenzyl)-1,2,4-thia-diazol-5-yl]-2-methyl-piperazine], the “% inh.” value was determined as 92%.

Still in this assay, the particulars now being: paraquat-treated M17-SYNwt cells, dose response.
`Cc1cccc(C)c1NC(=O)N1CCN(c2nc(Cc3ccc(F)cc3)ns2)CC1C` (stereo not shown) [Compound 19, N-(2,6-dimethylphenyl)-4-[3-(4-fluorobenzyl)-1,2,4-thiadiazol-5-yl]-2-methylpiperazine-1-carboxamide]: the “reduction of LDH activity in the medium (inhibition of α-synuclein mediated toxicity), FIG. 2” value is given as “inhibition of α-synuclein mediated toxicity; also recorded: able, in a dose-dependent manner, to reduce LDH activity in the medium”.

Still in this assay, the particulars now being: percent inhibition of synuclein cytotoxicity, LDH release, paraquat-treated M17-SYNwt cells, at most effective concentration of test cmpd.
For `CCOc1ccc(NC(=O)N2CCN(c3nc(Cc4ccc(F)cc4)ns3)CC2C)cc1` (stereo not shown) [Compound 14, N-(4-ethoxyphenyl)-4-[3-(4-fluorobenzyl)-1,2,4-thiadiazol-5-yl]-2-methylpiperazine-1-carboxamide], the “% I” value worked out at 70%.
On to `O=C(c1ccccc1)N1CCN(c2nc(Cc3ccc(F)cc3)ns2)CC1` [Compound 181, 1-benzoyl-4-[3-(4-fluorobenzyl)-1,2,4-thiadiazol-5-yl]piperazine], for which the “% I” value came to 60%.
On to `CC1CN(c2nc(Cc3ccc(F)cc3)ns2)CCN1S(=O)(=O)c1ccc(C(C)(C)C)cc1` (stereo not shown) [Compound 54, 1-[4-tert-butylphenylsulfonyl]-4-[3-(4-fluorobenzyl)-1,2,4-thiadiazol-5-yl]-2-methylpiperazine], for which the “% I” value is listed as 60%.
On the same count and under the same terms, next, `CC1CN(c2nc(Cc3ccc(F)cc3)ns2)CCN1C(=O)Nc1ccc(F)c(F)c1` (stereo not shown) [Compound 26, N-(3,4-difluorophenyl)-4-[3-(4-fluorobenzyl)-1,2,4-thiadiazol-5-yl]-2-methylpiperazine-1-carboxamide]: 70%; `O=C(c1cccc(F)c1)N1CCN(c2nc(Cc3ccc(Cl)cc3)ns2)CC1` [Compound 157, 1-(3-fluorobenzoyl)-4-[3-(4-chlorobenzyl)-1,2,4-thiadiazol-5-yl]piperazine]: 70%; `Cc1ccc(Cc2nsc(N3CCN(C/C=C/c4ccccc4)CC3)n2)cc1` [Compound 91, 1-[3-phenylprop-2-enyl]-4-[3-(4-methylbenzyl)-1,2,4-thiadiazol-5-yl]piperazine]: 90%.
As for `Cc1ccc(Cc2nsc(N3CCN(C(=O)c4ccc(Br)cc4)CC3)n2)cc1` [Compound 164, 1-(4-bromobenzoyl)-4-[3-(4-methylbenzyl)-1,2,4-thiadiazol-5-yl]piperazine], the “% I” value is reported as 60%.
Turning to `CC(C)(C)c1ccc(S(=O)(=O)N2CCN(c3nc(Cc4ccc(F)cc4)ns3)CC2)cc1` [Compound 61, 1-[4-ter-butylphenylsulfonyl]-4-[3-(4-fluorobenzyl)-1,2,4-thiadiazol-5-yl]piperazine], the “% I” value is 47%.
The same measure, in the same setting: next, `CCCCCc1ccc(C(=O)NCCN2CCN(c3nc(Cc4ccc(F)cc4)ns3)CC2)cc1` [Compound 94, 4-pentyl-N-{2-[4-[3-(4-fluorobenzyl)-1,2,4-thiadiazol-5-yl]piperazin-1-yl]ethyl}benzamide]: 90%; `CCCCS(=O)(=O)N1CCN(c2nc(Cc3ccc(Cl)cc3)ns2)CC1` [Compound 81, 1-(butylsulfonyl)-4-[3-(4-chlorobenzyl)-1,2,4-thiadiazol-5-yl]piperazine]: 80%; `O=C(NCCN1CCN(c2nc(Cc3ccc(F)cc3)ns2)CC1)c1ccc(F)cc1` [Compound 102, 4-fluoro-N-{2-[4-[3-(4-fluorobenzyl)-1,2,4-thiadiazol-5-yl]piperazin-1-yl]ethyl}benzamide]: 80%.
As to `CC1CN(c2nc(Cc3ccc(F)cc3)ns2)CCN1S(=O)(=O)c1cccc(C(F)(F)F)c1` (stereo not shown) [Compound 46, 1-[3-trifluorophenylsulfonyl]-4-[3-(4-fluorobenzyl)-1,2,4-thiadiazol-5-yl]-2-methylpiperazine], the “% I” value is reported as 64%.
As to `O=S(=O)(Cc1ccccc1)N1CCN(c2nc(Cc3ccc(Cl)cc3)ns2)CC1` [Compound 76, 1-(benzylsulfonyl)-4-[3-(4-chlorobenzyl)-1,2,4-thiadiazol-5-yl]piperazine], the “% I” value is recorded as 40%.
On to `COc1ccc(S(=O)(=O)N2CCN(c3nc(Cc4ccc(F)c(C)c4)ns3)CC2)cc1` [Compound 204], for which the “% I” value is 90%.
`CCC(=O)Oc1ccc(S(=O)(=O)N2CCN(c3nc(Cc4ccc(F)cc4)ns3)CC2)cc1` [Compound 200, 1-(4-propionyloxy)benzene-sulfonyl-4-[3-(4-fluoro-benzyl)-1,2,4-thiadiazol-5-yl]piperazine]: the “% I” value amounted to 80%.
Turning to `CC1CN(c2nc(Cc3ccc(F)cc3)ns2)CCN1C(=O)c1cccc(C(F)(F)F)c1` (stereo not shown) [Compound 145, 1-(3-trifluoromethylbenzoyl)-4-[3-(4-fluorobenzyl)-1,2,4-thiadiazol-5-yl]-2-methylpiperazine], the “% I” value is 60%.
As to `O=C(Cc1ccc(F)cc1)NCCN1CCN(c2nc(Cc3ccc(F)cc3)ns2)CC1` [Compound 107, 2-(4-fluorophenyl)-N-{2-[4-[3-(4-fluorobenzyl)-1,2,4-thiadiazol-5-yl]piperazin-1-yl]ethyl}acetamide], the “% I” value worked out at 80%.
Take `CCCCCCCCS(=O)(=O)N1CCN(c2nc(Cc3ccc(C)cc3)ns2)CC1` [Compound 82, 1-(octylsulfonyl)-4-[3-(4-methylbenzyl)-1,2,4-thiadiazol-5-yl]piperazine]: the “% I” value is recorded as 50%.
